MIC data for two molecules are collected here from patent EP0347459A1, “CEPHALOSPORIN COMPOUNDS OR THEIR SALTS, PROCESS FOR THEIR PREPARATION, AND PHARMACEUTICAL COMPOSITIONS” (TEIJIN LIMITED, priority 1987, dated 1988).

Structures are written as SMILES. ≈ marks a conversion by molar mass, not a printed value. Read-outs that look alike come from different tables or passages of the source.

What all share (assay type): cell-based
In assay [1] the test system is P.aeruginosa N-2. Put plainly: MIC values of 10 kinds of Pseudomonas aeruginosa. To be noted: N2, 16 h, read-out: MIC values. How it is done: (§1) An in vitro antibacterial activity was measured by an agar disc dilution method.
(§2) Varied test bacteria were cultivated overnight in triptophane-soybroth. A Mueller Hinton agar containing the compound of this invention in varied concentrations was streaked with one platinum loopful of each of the bacteria (number of living cells 10^6/ml).
(§3) MIC values of 10 kinds of Pseudomonas aeruginosa were measured for Compound III, Comparative Example B and CAZ.

Assay [2] has as its system P.aeruginosa Tid53. Put plainly: MIC values of 10 kinds of Pseudomonas aeruginosa. Conditions: TID53, 16 h, read-out: MIC values. How it is done: as §1, §2, §3
Assay [3] relates to P.aeruginosa 0-11. The experiment in a line: MIC values of 10 kinds of Pseudomonas aeruginosa. To be noted: Pseudomonas aeruginosa, 011, 16 h, read-out: MIC values. How it is done: as §1, §2, §3
In assay [4] the test system is P.aeruginosa N-3. Put plainly: MIC values of 10 kinds of Pseudomonas aeruginosa. To be noted: N3, 16 h, read-out: MIC values. On the procedure: as §1, §2, §3
For assay [5], the system named is P.aeruginosa 64. The experiment in a line: MIC values of 10 kinds of Pseudomonas aeruginosa. To be noted: Pseudomonas aeruginosa, 64, 16 h, read-out: MIC values. On the procedure:
as §1, §2, §3

Assay [6] has as its system P.aeruginosa ATCC27577. The experiment in a line: MIC values of 10 kinds of Pseudomonas aeruginosa. To be noted: ATCC27577, 16 h, read-out: MIC values. How it is done: as §1, §2, §3
The subject of assay [7] is P.aeruginosa 88. Put plainly: MIC values of 10 kinds of Pseudomonas aeruginosa. To be noted: Pseudomonas aeruginosa, 88, 16 h, read-out: MIC values. On the procedure:
as §1, §2, §3

Assay [8] relates to P.aeruginosa NO. 97. The experiment in a line: MIC values of 10 kinds of Pseudomonas aeruginosa. Conditions: NO.97, 16 h, read-out: MIC values. How it is done: as §1, §2, §3
For assay [9], the system named is P.aeruginosa ATCC27318. Put plainly: MIC values of 10 kinds of Pseudomonas aeruginosa. Conditions: ATCC27318, 16 h, read-out: MIC values. How it is done:
as §1, §2, §3

Assay [10] deals with P.aeruginosa N-26. The experiment in a line: MIC values of 10 kinds of Pseudomonas aeruginosa. Conditions: N26, 16 h, read-out: MIC values. How it is done:
as §1, §2, §3

The subject of assay [11] is M.luteus ATCC9341. The experiment in a line: In vitro antibacterial activity, agar disc dilution method. Conditions: Micrococcus luteus, read-out: minimum growth inhibitory concentration (MIC). How it is done:
as §1, §2

In assay [12] the test system is S.typhi 901. Described as above. To be noted: Salmonella enterica, 16 h, read-out: minimum growth inhibitory concentration (MIC). How it is done: as §1, §2
Assay [13] concerns S.pyogenes Cook. Described as above. To be noted: Streptococcus pyogenes, read-out: minimum growth inhibitory concentration (MIC). How it is done: as §1, §2
In assay [14] the test system is S.aureus 209p NIHJ JC1. The description is as above. Conditions: Staphylococcus aureus, read-out: minimum growth inhibitory concentration (MIC). How it is done:
as §1, §2

The test system of assay [15] is P.vulgalis OX-11. Described as above. To be noted: read-out: minimum growth inhibitory concentration (MIC). On the procedure:
as §1, §2

Assay [16] concerns P.aeruginosa IFO3445. Described as above. To be noted: Pseudomonas aeruginosa, read-out: minimum growth inhibitory concentration (MIC). On the procedure:
as §1, §2

For assay [17], the system named is S. aureus Terajima. The description is as above. Conditions: Staphylococcus aureus, read-out: minimum growth inhibitory concentration (MIC). How it is done: as §1, §2
For assay [18], the system named is S.marcescens IAM1184. The assay is described as above. Conditions: Serratia marcescens, read-out: minimum growth inhibitory concentration (MIC). How it is done: as §1, §2
The subject of assay [19] is S.enteritidis G14. The description is as above. To be noted: Salmonella enterica, read-out: minimum growth inhibitory concentration (MIC). On the procedure:
as §1, §2

Assay [20] deals with K.pneumoniae PCI602. Described as above. Conditions: Klebsiella pneumoniae, read-out: minimum growth inhibitory concentration (MIC). How it is done: as §1, §2
The subject of assay [21] is P.morganii IFO3445. Described as above. To be noted: Morganella morganii, read-out: minimum growth inhibitory concentration (MIC). How it is done:
as §1, §2

Assay [22] deals with P.aeruginosa PAD1. The assay is described as above. To be noted: Pseudomonas aeruginosa, read-out: minimum growth inhibitory concentration (MIC). On the procedure: as §1, §2
Assay [23] relates to E.cloacae 963. The description is as above. To be noted: read-out: minimum growth inhibitory concentration (MIC). How it is done:
as §1, §2

Assay [24] deals with P.aeruginosa NCTC1049. The description is as above. Conditions: Pseudomonas aeruginosa, read-out: minimum growth inhibitory concentration (MIC). How it is done: as §1, §2

As to `CC(C)(O/N=C(\C(=O)N[C@@H]1C(=O)N2C(C(=O)[O-])=C(C[n+]3ccccc3)CS[C@H]12)c1csc(N)n1)C(=O)O` [CAZ, (6R,7R)-7-[(Z)-2-(2-amino-1,3-thiazol-4-yl)-2-(2-carbcxypropyl-2-yloxyimino)acetamide]-3-(l-pyridinium)methyl-3-cephem-4-carboxylate, reference compound], the MIC in [1] is 0.8 µg/mL (≈ 1.46 µM); in assay [2] it was 6.3 µg/mL (≈ 11.5 µM); in [3] it was 3.1 µg/mL (≈ 5.67 µM); in assay [4], 1.6 µg/mL (≈ 2.93 µM); in assay [5], 3.1 µg/mL (≈ 5.67 µM); in assay [6], 0.2 µg/mL (≈ 0.366 µM). The MIC in assay [7] was determined as 0.8 µg/mL (≈ 1.46 µM); in [8], 3.1 µg/mL (≈ 5.67 µM); in assay [9], 1.6 µg/mL (≈ 2.93 µM); in [10], 1.6 µg/mL (≈ 2.93 µM); in [11] (ATCC9341, 16 h), 0.4 µg/mL (≈ 0.732 µM); in assay [12] it was 0.1 µg/mL (≈ 0.183 µM). The MIC in [13] (16 h) is 0.4 µg/mL (≈ 0.732 µM); in assay [14] (16 h) it was 6.3 µg/mL (≈ 11.5 µM); in assay [15] (16 h), 5 ng/mL (≈ 0.00915 µM); in assay [16] (IFO3445, 16 h), 0.4 µg/mL (≈ 0.732 µM); in assay [17] (16 h), 1.6 µg/mL (≈ 2.93 µM); in [18] (IAM1184, 16 h) it was 0.025 µg/mL (≈ 0.0457 µM). Besides, the MIC in [19] (ENTERITIDIS, 16 h) worked out at 5 ng/mL (≈ 0.00915 µM); in assay [20] (PCI602, 16 h), 0.025 µg/mL (≈ 0.0457 µM); in assay [21] (IFO3445, 16 h), 12.5 ng/mL (≈ 0.0229 µM); in assay [22] (PAD1, 16 h), 0.4 µg/mL (≈ 0.732 µM); in [23] (Enterobacter cloacae, 963, 16 h), 0.05 µg/mL (≈ 0.0915 µM); in assay [24] (NCTC1049, 16 h) it was 0.4 µg/mL (≈ 0.732 µM).
For `CON=C(C(=O)NC1C(=O)N2C(C(=O)[O-])=C(C[n+]3ccc4cc(O)c(O)cc4c3)CSC12)c1nsc(N)n1` [Compound I, (6R,7R)-7-[(Z)-2-(5-amino-1,2,4-thiadiazol-3-yl-2-methoxyimino)acetamide]-3-(6,7-dihydroxy-2-isoquinolinium)methyl-3-cephem-4-carboxylate], the MIC in [11] (M.luteus ATCC9341, Mueller Hinton agar, 10^6/ml, 37°C for 16 hours) is 0.1 µg/mL (≈ 0.179 µM); in assay [12], 0.005 µg/mL (≈ 0.00897 µM); in [13] (S.pyogenes Cook, Mueller Hinton agar, 10^6/ml, 37°C for 16 hours) it was 0.05 µg/mL (≈ 0.0897 µM); in assay [14] (S.aureus 209p NIHJ JC1, Mueller Hinton agar, 10^6/ml, 37°C for 16 hours) it was 1.6 µg/mL (≈ 2.87 µM); in assay [15] (P.vulgalis OX-11, Mueller Hinton agar, 10^6/ml, 37°C for 16 hours), 5 ng/mL (≈ 0.00897 µM); in assay [16] (P.aeruginosa IFO3445, Mueller Hinton agar, 10^6/ml, 37°C for 16 hours), 12.5 µg/mL (≈ 22.4 µM). The MIC in assay [17] (S. aureus Terajima, Mueller Hinton agar, 10^6/ml, 37°C for 16 hours) turned out to be 1.6 µg/mL (≈ 2.87 µM); in assay [18] (S.marcescens IAM1184, Mueller Hinton agar, 10^6/ml, 37°C for 16 hours) it was 0.005 µg/mL (≈ 0.00897 µM); in [19] (S.enteritidis G14, Mueller Hinton agar, 10^6/ml, 37°C for 16 hours), 5 ng/mL (≈ 0.00897 µM); in assay [20] (K.pneumoniae PCI602, Mueller Hinton agar, 10^6/ml, 37°C for 16 hours), 0.005 µg/mL (≈ 0.00897 µM); in assay [21] (P.morganii IFO3445, Mueller Hinton agar, 10^6/ml, 37°C for 16 hours), 5 ng/mL (≈ 0.00897 µM); in assay [22] (P.aeruginosa PAD1, Mueller Hinton agar, 10^6/ml, 37°C for 16 hours), 12.5 µg/mL (≈ 22.4 µM). For the same molecule, the MIC in assay [23] (Enterobacter cloacae, E.cloacae 963, Mueller Hinton agar, 10^6/ml, 37°C for 16 hours) came out at 0.005 µg/mL (≈ 0.00897 µM); in [24] (P.aeruginosa NCTC1049, Mueller Hinton agar, 10^6/ml, 37°C for 16 hours) it was 0.2 µg/mL (≈ 0.359 µM).
